Here are results for three compounds from article PMC11554998, “Machine learning-aided search for ligands of P2Y6 and other P2Y receptors” (Purinergic Signalling, 2024).

As a reminder, the IC50 is the concentration at which inhibition is half-maximal. By inhibition is commonly meant how much of the control response was suppressed.

The target of one experiment is T1, P2Y6 receptor (hP2Y6R) (Homo sapiens, UniProt Q15077).
T1 construct: gene P2RY6
The experiment is described as follows: FLIPR calcium mobilization, inhibition of UDP ([…]) response in […]1-hP2Y6R cells. It counts as cell-based. Particulars: read-out: P2Y6R, mean IC50 ± SEM (μM) or % inhibition at 400 μM^a. A general note: Calcium assays in cells follow changes in intracellular calcium, usually with a dye or a luminescent sensor.

The next experiment deals with T2, P2Y14 receptor (hP2Y14R) (Homo sapiens, UniProt Q15391).
T2 construct: gene P2RY14
T2 sequence (Q15391 1-338): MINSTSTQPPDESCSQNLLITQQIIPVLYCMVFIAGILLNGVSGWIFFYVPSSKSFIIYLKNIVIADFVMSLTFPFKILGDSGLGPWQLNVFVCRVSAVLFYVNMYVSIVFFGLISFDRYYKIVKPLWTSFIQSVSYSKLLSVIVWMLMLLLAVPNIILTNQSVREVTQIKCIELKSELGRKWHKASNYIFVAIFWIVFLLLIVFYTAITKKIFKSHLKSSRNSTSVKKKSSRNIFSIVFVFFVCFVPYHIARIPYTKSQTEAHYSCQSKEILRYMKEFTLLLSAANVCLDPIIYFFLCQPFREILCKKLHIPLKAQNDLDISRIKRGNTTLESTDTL
Nature of the experiment: competitive binding vs fluorescent antagonist MRS4174, whole CHO-hP2Y14R cells, flow cytometry; single concentration […]. Format: cell-based. The settings on record: read-out: P2Y14, % inhibition at 100 μM (n = 3). Background: In flow cytometry, cells or beads pass a laser one at a time.

T1 sequence (Q15077 whole entry): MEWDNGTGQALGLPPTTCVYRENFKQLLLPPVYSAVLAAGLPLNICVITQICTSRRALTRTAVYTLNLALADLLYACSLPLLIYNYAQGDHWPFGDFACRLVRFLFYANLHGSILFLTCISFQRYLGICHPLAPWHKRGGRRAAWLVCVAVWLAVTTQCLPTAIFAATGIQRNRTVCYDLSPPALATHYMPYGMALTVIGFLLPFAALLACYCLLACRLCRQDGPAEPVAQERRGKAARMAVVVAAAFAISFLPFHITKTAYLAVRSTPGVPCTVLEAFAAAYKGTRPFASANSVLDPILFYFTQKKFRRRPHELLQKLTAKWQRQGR

On to `COc1cccc([C@@H](Oc2ccc3c(cnn3-c3ccc(F)cc3)c2)[C@H](C)NC(=O)C(F)(F)F)c1` [AZD5423], for which the IC50 at P2Y6 receptor (hP2Y6R) turned out to be 574 ± 181 µM. For the compound `CCNC(=O)c1cc2c(-c3cc(C(C)(C)O)ccc3Oc3c(C)cc(F)cc3C)cn(C)c(=O)c2[nH]1` [ABBV-744], the half-inhibitory concentration (IC50) on P2Y6 receptor (hP2Y6R) is 75.7 ± 11.5 µM. `Cc1cc(C(=O)Nc2cc(Oc3ccc4nc(NC(=O)C5CC5)cn4n3)ccc2C)n(C)n1` [TAK-593]: at P2Y14 receptor (hP2Y14R), the inhibition at 100 µM was found to be 50 ± 4%.
